Assay results taken from PMC6761804 (ACS Omega, 2019).

Tested on: colorectal tumor of Apc^min/+ genetically engineered CRC mouse
Format: in vivo, Apc^min/+ mice
Settings: i.v. about 3.7 MBq, PET/CT after 1 h (Figure S4)

`OC[C@H]1OC(O)[C@H](F)[C@@H](O)[C@@H]1O` (stereo partly shown) [^18F-FDG, ^18F-Fluorodeoxyglucose, reference compound] was tested, and the “Tumor enrichment in PET/CT (in words)” value was “did not show ideal tumor enrichment”.
